In patent publication US20250129078A1, “ERBB2 INHIBITORS” (Cogent Biosciences, Inc., priority 2023, published 2025):

biological target: EGFR WT (Homo sapiens (Human), UniProt P00533); experiment: ErbB enzyme assay (CisBio HTRF-KinEASE-TK), EGFR WT; assay type: biochemical; settings: ATP at Km (25 μM), 1 h incubation
Summary of the method: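 HTRF KinEASE-TK kinase assay, 1 h at ambient temperature with three-fold serial compound dilutions, then 1 h detection with Sa-XL665/TK-Ab-Cryptate. IC50 is the 50 POC point of a 4-parameter logistic fit.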

EGFR WT, sequence (P00533 25-1210): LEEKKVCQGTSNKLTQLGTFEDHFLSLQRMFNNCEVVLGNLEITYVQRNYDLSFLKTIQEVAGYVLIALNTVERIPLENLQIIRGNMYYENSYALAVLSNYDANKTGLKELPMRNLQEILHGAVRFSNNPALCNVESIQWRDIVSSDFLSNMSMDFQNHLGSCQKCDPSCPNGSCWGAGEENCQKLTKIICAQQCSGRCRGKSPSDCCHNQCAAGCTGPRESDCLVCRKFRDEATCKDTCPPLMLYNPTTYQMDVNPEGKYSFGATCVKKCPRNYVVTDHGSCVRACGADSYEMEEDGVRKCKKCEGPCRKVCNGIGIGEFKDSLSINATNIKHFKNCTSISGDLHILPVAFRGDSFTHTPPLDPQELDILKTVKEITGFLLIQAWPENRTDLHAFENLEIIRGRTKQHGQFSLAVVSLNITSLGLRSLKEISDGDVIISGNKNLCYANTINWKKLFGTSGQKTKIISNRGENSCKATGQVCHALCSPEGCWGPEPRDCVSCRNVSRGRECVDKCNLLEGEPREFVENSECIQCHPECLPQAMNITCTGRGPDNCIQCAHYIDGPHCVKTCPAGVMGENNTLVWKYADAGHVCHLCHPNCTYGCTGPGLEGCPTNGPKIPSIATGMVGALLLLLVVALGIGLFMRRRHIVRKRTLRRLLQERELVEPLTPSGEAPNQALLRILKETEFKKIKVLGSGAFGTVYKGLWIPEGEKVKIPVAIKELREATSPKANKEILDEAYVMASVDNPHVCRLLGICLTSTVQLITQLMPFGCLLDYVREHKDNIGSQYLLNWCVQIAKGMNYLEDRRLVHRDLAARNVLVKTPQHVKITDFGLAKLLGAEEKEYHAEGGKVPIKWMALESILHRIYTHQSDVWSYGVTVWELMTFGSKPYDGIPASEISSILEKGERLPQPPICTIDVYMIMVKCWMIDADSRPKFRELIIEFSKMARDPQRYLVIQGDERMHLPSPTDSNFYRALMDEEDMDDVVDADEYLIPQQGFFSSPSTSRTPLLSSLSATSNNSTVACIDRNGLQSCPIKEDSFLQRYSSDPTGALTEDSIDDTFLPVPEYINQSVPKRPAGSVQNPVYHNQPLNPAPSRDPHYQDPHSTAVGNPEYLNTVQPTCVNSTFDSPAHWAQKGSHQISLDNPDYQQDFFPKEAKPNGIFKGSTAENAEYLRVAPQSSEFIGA

Compared with `C=CC(=O)N1C(C)(C)CC(c2ccc3ncnc(Nc4ccc(Oc5ccc6c(c5)nnn6C)c(C)c4)c3n2)CC1(C)C` [Compound 399, 1-(2,2,6,6-tetramethyl-4-(4-((3-methyl-4-((1-methyl-1H-benzo[d][1,2,3]triazol-5-yl)oxy)phenyl)amino)pyrido[3,2-d]pyrimidin-6-yl)piperidin-1-yl)prop-2-en-1-one], `C=CC(=O)N1CC2CC1CN2c1ccc2ncnc(Nc3ccc(Oc4ccc5c(c4)nnn5C)c(C)c3)c2n1` (centres unmarked) [Compound 81, 1-(5-(4-((3-methyl-4-((1-methyl-1H-benzo[d][1,2,3]triazol-5-yl)oxy)phenyl)amino)pyrido[3,2-d]pyrimidin-6-yl)-2,5-diazabicyclo[2.2.1]heptan-2-yl)prop-2-en-1-one] is lower in IC50: ≥ 1000 nM for the first, < 50 nM for the second.

Compared with `C=CC(=O)N[C@@]1(C)CCCN(c2ncc3ncnc(Nc4ccc(Oc5ccc6c(c5)nnn6C)c(C)c4)c3n2)C1` [Compound 146, (S)-N-(3-methyl-1-(8-((3-methyl-4-((1-methyl-1H-benzo[d][1,2,3]triazol-5-yl)oxy)phenyl)amino)pyrimido[5,4-d]pyrimidin-2-yl)piperidin-3-yl)acrylamide], `C=CC(=O)N[C@@H]1CCN(c2ncc3ncnc(Nc4ccc(Oc5ccc6c(c5)nnn6C)c(C)c4)c3n2)C1` [Compound 153, (R)-N-(1-(8-((3-methyl-4-((1-methyl-1H-benzo[d][1,2,3]triazol-5-yl)oxy)phenyl)amino)pyrimido [5,4-d]pyrimidin-2-yl)pyrrolidin-3-yl)acrylamide] is lower in IC50: 500 to 1000 nM for the first, 100 to 500 nM for the second. The second is the more potent here.

First: C=CC(=O)N1CCN(c2ccc3ncnc(Nc4cc(C)c(Oc5ccn6ncnc6c5)cc4OC)c3n2)C[C@H]1C [Compound 318, (R)-1-(4-(4-((4-([1,2,4]triazolo[1,5-a]pyridin-7-yloxy)-2-methoxy-5-methylphenyl)amino)pyrido[3,2-d]pyrimidin-6-yl)-2-methylpiperazin-1-yl)prop-2-en-1-one]
Second: C=CC(=O)N1CCN(c2ccc3ncnc(Nc4ccc(Oc5cc(F)c6c(c5)nnn6C)c(C)c4)c3n2)C[C@H]1C [Compound 254, (R)-1-(4-(4-((4-((7-fluoro-1-methyl-1H-benzo[d][1,2,3]triazol-5-yl)oxy)-3-methylphenyl)amino)pyrido[3,2-d]pyrimidin-6-yl)-2-methylpiperazin-1-yl)prop-2-en-1-one]
The IC50 of the first is lower: < 50 nM for the first, 50 to 100 nM for the second. The first is the more potent here.

First: C=CC(=O)N1CCC(Oc2ncc3ncnc(Nc4ccc(Oc5ccc6c(c5)ncn6C)c(OC)c4)c3n2)CC1 [Compound 379, 1-(4-((8-((3-methoxy-4-((1-methyl-1H-benzo[d]imidazol-5-yl)oxy)phenyl)amino)pyrimido[5,4-d]pyrimidin-2-yl)oxy)piperidin-1-yl)prop-2-en-1-one]
Second: C=CC(=O)N1CCC(Oc2ncc3ncnc(Nc4ccc(Oc5ccc6c(c5)ncn6C(F)F)c(C)c4)c3n2)CC1 [Compound 380, 1-(4-((8-((4-((1-(difluoromethyl)-1H-benzo[d]imidazol-5-yl)oxy)-3-methylphenyl)amino)pyrimido[5,4-d]pyrimidin-2-y1)oxy)piperidin-1-yl)prop-2-en-1-one]
The IC50 of the first is higher: 100 to 500 nM for the first, < 50 nM for the second.

First: C=CC(=O)N1CCC(Oc2ncc3ncnc(Nc4ccc(Oc5cc(F)c6c(c5)nnn6C)c(C)c4)c3n2)CC1 [Compound 106, 1-(4-((8-((4-((7-fluoro-1-methyl-1H-benzo[d][1,2,3]triazol-5-yl)oxy)-3-methylphenyl)amino)pyrimido[5,4-d]pyrimidin-2-yl)oxy)piperidin-1-yl)prop-2-en-1-one]
Second: C=CC(=O)N1CCN(c2ncc3ncnc(Nc4ccc(Oc5cc(F)c6c(c5)ncn6C)c(C)c4)c3n2)C[C@H]1C [Compound 159, (R)-1-(4-(8-((4-((7-fluoro-1-methyl-1H-benzo[d]imidazol-5-yl)oxy)-3-methylphenyl)amino)pyrimido[5,4-d]pyrimidin-2-yl)-2-methylpiperazin-1-yl)prop-2-en-1-one]
The IC50 of the first is lower: < 50 nM for the first, 50 to 100 nM for the second.

`C=CC(=O)N1[C@@H](C)CN(c2ncc3ncnc(Nc4ccc(Oc5ccc6c(c5)nnn6C)c(C)c4)c3n2)C[C@@H]1C` [Compound 184, 1-((2S,6S)-2,6-dimethyl-4-(8-((3-methyl-4-((1-methyl-1H-benzo[d][1,2,3]triazol-5-yl)oxy)phenyl)amino)pyrimido[5,4-d]pyrimidin-2-yl)piperazin-1-yl)prop-2-en-1-one] and `C=C(COC)C(=O)N1C2CC1CN(c1ncc3ncnc(Nc4ccc(Oc5ccc6c(c5)nnn6C)c(C)c4)c3n1)C2` [Compound 213, 2-(methoxymethyl)-1-(3-(8-((3-methyl-4-((1-methyl-1H-benzo[d][1,2,3]triazol-5-yl)oxy)phenyl)amino)pyrimido [5,4-d]pyrimidin-2-yl)-3,6-diazabicyclo[3.1.1]heptan-6-yl)prop-2-en-1-one] cannot be ordered by IC50: ≥ 1000 nM for the first, ≥ 1000 nM for the second.

`C=CC(=O)N[C@@H]1CCCN(c2ccc3ncnc(Nc4cc(C)c(Oc5ccc6c(c5)nnn6C)cc4OC(F)F)c3n2)C1` [Compound 269, (R)-N-(1-(4-((2-(difluoromethoxy)-5-methyl-4-((1-methyl-1H-benzo[d][1,2,3]triazol-5-yl)oxy)phenyl)amino)pyrido[3,2-d]pyrimidin-6-yl)piperidin-3-yl)acrylamide] and `C=CC(=O)N[C@H]1CCCN(c2ccc3ncnc(Nc4ccc(Oc5ccc6c(c5)nnn6C)c(C)c4F)c3n2)CC1` [Compound 282, (S)-N-(1-(4-((2-fluoro-3-methyl-4-((1-methyl-1H-benzo[d][1,2,3]triazol-5-yl)oxy)phenyl)amino)pyrido[3,2-d]pyrimidin-6-yl)azepan-4-yl)acrylamide] cannot be ordered by IC50: ≥ 1000 nM for the first, 500 to 1000 nM for the second.

Going from `C=CC(=O)N[C@@H]1CCCN(c2ncc3ncnc(Nc4ccc(Oc5cc(F)c6c(c5)nnn6C)c(C)c4F)c3n2)C1` [Compound 178, (R)-N-(1-(8-((2-fluoro-4-((7-fluoro-1-methyl-1H-benzo[d][1,2,3]triazol-5-yl)oxy)-3-methylphenyl)amino)pyrimido[5,4-d]pyrimidin-2-yl)piperidin-3-yl)acrylamide] to `C=CC(=O)N[C@@H]1CCCN(c2ncc3ncnc(Nc4ccc(Oc5ccc6c(c5)nnn6C)c(C)c4F)c3n2)CC1` [Compound 172, (R)-N-(1-(8-((2-fluoro-3-methyl-4-((1-methyl-1H-benzo[d][1,2,3]triazol-5-yl)oxy)phenyl)amino)pyrimido[5,4-d]pyrimidin-2-yl)azepan-4-yl)acrylamide], the IC50 rises from < 50 nM to ≥ 1000 nM.

Compared with `C=CC(=O)N1CCN(c2ccc3ncnc(Nc4cc(F)c(Oc5ccc6c(c5)nnn6C)c(Cl)c4)c3n2)C[C@H]1C` [Compound 252, (R)-1-(4-(4-((3-chloro-5-fluoro-4-((1-methyl-1H-benzo[d][1,2,3]triazol-5-yl)oxy)phenyl)amino)pyrido[3,2-d]pyrimidin-6-yl)-2-methylpiperazin-1-yl)prop-2-en-1-one], `C=CC(=O)N1CCN(c2ccc3ncnc(Nc4ccc(Oc5ccc6c(c5)nnn6C)c(C)c4)c3n2)C[C@@H]1COC` [Compound 78, (R)-1-(2-(methoxymethyl)-4-(4-((3-methyl-4-((1-methyl-1H-benzo[d][1,2,3]triazol-5-yl)oxy)phenyl)amino)pyrido[3,2-d]pyrimidin-6-yl)piperazin-1-yl)prop-2-en-1-one] is higher in IC50: 50 to 100 nM for the first, 100 to 500 nM for the second.

`C=CC(=O)N[C@H]1C[C@H](C)CN(c2ncc3ncnc(Nc4ccc(Oc5ccc6c(c5)nnn6C)c(C)c4F)c3n2)C1` (single isomer, unassigned) [Compound 202] and `C=CC(=O)N[C@H]1CN(c2ccc3ncnc(Nc4ccc(Oc5ccc6c(c5)nnn6C)c(C)c4F)c3n2)CC[C@H]1C` [Compound 341, N-((3R,4R)-1-(4-((2-fluoro-3-methyl-4-((1-methyl-1H-benzo[d][1,2,3]triazol-5-yl)oxy)phenyl)amino)pyrido[3,2-d]pyrimidin-6-yl)-4-methylpiperidin-3-yl)acrylamide] cannot be ordered by IC50: 500 to 1000 nM for the first, ≥ 1000 nM for the second.

Compared with `C=CC(=O)N1CCN(c2ncc3ncnc(Nc4ccc(Oc5cc(F)c6c(c5)ncn6C)c(C)c4F)c3n2)C[C@H]1CC` [Compound 160, (R)-1-(2-ethyl-4-(8-((2-fluoro-4-((7-fluoro-1-methyl-1H-benzo[d]imidazol-5-yl)oxy)-3-methylphenyl)amino)pyrimido[5,4-d]pyrimidin-2-yl)piperazin-1-yl)prop-2-en-1-one], `C=CC(=O)N1CCN(c2ncc3ncnc(Nc4ccc(Oc5ccc6c(c5)nnn6C)c(F)c4F)c3n2)CC1` [Compound 44, 1-(4-(8-((2,3-difluoro-4-((1-methyl-1H-benzo[d][1,2,3]triazol-5-yl)oxy)phenyl)amino)pyrimido[5,4-d]pyrimidin-2-yl)piperazin-1-yl)prop-2-en-1-one] is higher in IC50: < 50 nM for the first, 50 to 100 nM for the second. The first is the more potent here.

Compared with `C=CC(=O)N1CCN(c2ccc3ncnc(Nc4ccc(Oc5cc6nnn(C)c6c(F)c5C)c(C)c4F)c3n2)C[C@H]1C` [Compound 293, (R)-1-(4-(4-((2-fluoro-4-((7-fluoro-1,6-dimethyl-1H-benzo[d][1,2,3]triazol-5-yl)oxy)-3-methylphenyl)amino)pyrido[3,2-d]pyrimidin-6-yl)-2-methylpiperazin-1-yl)prop-2-en-1-one], `C=CC(=O)N1C[C@@H](N(C)c2ccc3ncnc(Nc4ccc(Oc5ccc6c(c5)nnn6C)c(C)c4F)c3n2)CC[C@@H]1C` [Compound 267, 1-((2S,5S)-5-((4-((2-fluoro-3-methyl-4-((1-methyl-1H-benzo[d][1,2,3]triazol-5-yl)oxy)phenyl)amino)pyrido[3,2-d]pyrimidin-6-yl)(methyl)amino)-2-methylpiperidin-1-yl)prop-2-en-1-one] is higher in IC50: 100 to 500 nM for the first, ≥ 1000 nM for the second. The first is the more potent here.

First: C=CC(=O)N[C@H]1CN(c2ccc3ncnc(Nc4ccc(Oc5ccc6c(c5)nnn6C)c(C)c4)c3n2)C[C@H]1F [Compound 277, N-((3S,4R)-4-fluoro-1-(4-((3-methyl-4-((1-methyl-1H-benzo[d][1,2,3]triazol-5-yl)oxy)phenyl)amino)pyrido[3,2-d]pyrimidin-6-yl)pyrrolidin-3-yl)acrylamide]
Second: C=C(F)C(=O)N1CCN(c2ccc3ncnc(Nc4ccc(Oc5ccc6c(c5)nnn6C)c(C)c4)c3n2)C[C@H]1CC#N [Compound 86, (R)-2-(1-(2-fluoroacryloyl)-4-(4-((3-methyl-4-((1-methyl-1H-benzo[d][1,2,3]triazol-5-yl)oxy)phenyl)amino)pyrido[3,2-d]pyrimidin-6-yl)piperazin-2-yl)acetonitrile]
The IC50 of the first is lower: 100 to 500 nM for the first, ≥ 1000 nM for the second. The first is the more potent here.
